Reference: patent EP0472573B1, “HERBICIDE RESISTANT MAIZE” (ZENECA LIMITED, priority 1989, dated 1990)
Where two headings read alike, the source gives them in different places.

Columns and labels:
Type in all cases: biochemical, Zea mays
[1] = target: ALS extracted from leaves of MUTANT 1 (homozygous); assay: ALS enzyme assay, homozygous Mutant 1; conditions: for IC50: ALS of homozygous Mutant 1, read-out: ID50% Mutant; for Fold Increase: fold increase in resistance vs wild type, homozygous Mutant 1
Description: (§1) Four grams of leaf material were harvested from just above the first leaf axis and ground in a mortar and pestle in 20ml of a solution containing 40mM Tricine (Trade Mark), 10mM EDTA, 5mM pyruvate, 80 »M flavin adenine dinucleotide (FAD), 1mM dithiothreitol (DTT), pH 8, plus 0.8g Polyclar AT. The homogenate was pressed through four layers of muslin and centrifuged at 30,000g for 20 minutes.
(§2) The supernatant was brought to 65% saturation with ammonium sulphate, left to precipitate for 30 minutes and then centrifuged at 30.000g for 20 minutes. The pellet was resuspended in 2.5ml of 40mM Tricine, 10mM EDTA, 5mM pyruvate, 80»M FAD, 25% (v/v) glycerol, 1mM DTT, pH 8, and desalted into 3.5ml of 40mM Tricine, 10mM EDTA, 25% (v/v) glycerol, 1mM DTT, pH 8.
(§3) One hundred microlitres of the enzyme extract was used for each assay. Final reagent concentrations were: 120mM Tricine, 50mM pyruvate, 10mM MgCl₂, […], 93»M thiamine pyrophosphate (TPP), pH 8, in the presence or absence of a herbicide of interest, in a volume of 750 »l. Incubations were carried out at 37°C for 30 minutes. Reactions were stopped with 250»l of 1.84M sulphuric acid, and decarboxylation of the acetolactate carried out at 37°C for 75 minutes, or at 60°C for 30 minutes. Assay blanks had sulphuric acid added prior to the enzyme extract. To the samples and blanks 650»l of α-naphthol in 2.73M NaOH/0.16%(w/v) creatine were added followed by incubation at 37°C for 30 minutes. After centrifugation at 30,000g the optical density of the supernatant was read at 540nm.
(§4) The assay procedure described was carried out on ALS enzyme extracted from each of the nine mutants for the following herbicides: imazethapyr (PURSUIT) imazapyr (ARSENAL) imazaquin (SCEPTER) chlorsulfuron (GLEAN) chlorimuron (CLASSIC) […] (HARMONY) The enzyme activity graphs are given as Figures 3 to 8. In addition, homozygous lines of mutants 1 and 2 which were selected from generation M₁BC₁S₂, were also tested against the same group of herbicides and against representatives of the triazolopyrimidines and phenoxypyrimidines. The chemical structures of these herbicides are shown in Figure 2 of the accompanying drawings.
(§5) From the enzyme assay data it is possible to derive, as a measure of the degree of inhibition the factor ID50% for each mutant and for each herbicide. This factor is indicative of the herbicide concentration which gives 50% inhibition of the ALS activity in comparison with the wild-type control. It is also possible to derive the fold increase in resistance.

[2] = target: ALS enzyme extracted from Mutant 10 (heterozygous); assay: ALS enzyme assay, heterozygous Mutant 10; conditions: for IC50: ALS of heterozygous Mutant 10, read-out: ID50% (the source's name); for resistance group, Enzyme Assay: Mutant 10, groups Strong, Intermediate, Weak, Zero; for Fold Increase: fold increase in resistance vs wild type, heterozygous Mutant 10, 30 min
Description: (§6) Seeds of generation M₁BC₁ M₁BC₂ of the nine mutants were sprayed pre-emergence with the herbicide imazethapyr (PURSUIT) (Trade Mark) at a rate of 250 g/ha and grown in a growth chamber (16 hour day, 27°C; 8 hour night, 17°C). Plants were harvested after 11 days.
as §1, §2, §3, §4, §5

[3] = target: ALS enzyme extracted from Mutant 7 (heterozygous); assay: ALS enzyme assay, heterozygous Mutant 7; conditions: for IC50: ALS of heterozygous Mutant 7, read-out: ID50% (the source's name); for resistance group, Enzyme Assay: Mutant 7, groups Strong, Intermediate, Weak, Zero; for Fold Increase: fold increase in resistance vs wild type, heterozygous Mutant 7, 30 min
Description: as §6, §1, §2, §3, §4, §5

[4] = target: ALS extracted from leaves of MUTANT 2 (homozygous); assay: ALS enzyme assay, homozygous Mutant 2; conditions: for IC50: ALS of homozygous Mutant 2, read-out: ID50% Mutant; for Fold Increase: fold increase in resistance vs wild type, homozygous Mutant 2, 30 min
Description: as §1, §2, §3, §4, §5

[5] = target: ALS enzyme extracted from Mutant 6 (heterozygous); assay: ALS enzyme assay, heterozygous Mutant 6; conditions: for IC50: ALS of heterozygous Mutant 6, read-out: ID50% (the source's name); for resistance group, Enzyme Assay: Mutant 6, groups Strong, Intermediate, Weak, Zero; for Fold Increase: fold increase in resistance vs wild type, heterozygous Mutant 6, 30 min
Description: as §6, §1, §2, §3, §4, §5

[6] = target: ALS enzyme extracted from Mutant 2 (heterozygous); assay: ALS enzyme assay, heterozygous Mutant 2; conditions: for IC50: ALS of heterozygous Mutant 2, read-out: ID50% (the source's name); for resistance group, Enzyme Assay: Mutant 2, groups Strong, Intermediate, Weak, Zero; for Fold Increase: fold increase in resistance vs wild type, heterozygous Mutant 2, 30 min
Description: as §6, §1, §2, §3, §4, §5

[7] = target: ALS enzyme extracted from Mutant 5 (heterozygous); assay: ALS enzyme assay, heterozygous Mutant 5; conditions: for IC50: ALS of heterozygous Mutant 5, read-out: ID50% (the source's name); for resistance group, Enzyme Assay: Mutant 5, groups Strong, Intermediate, Weak, Zero; for Fold Increase: fold increase in resistance vs wild type, heterozygous Mutant 5, 30 min
Description: as §6, §1, §2, §3, §4, §5

[8] = target: ALS enzyme extracted from Mutant 1 (heterozygous); assay: ALS enzyme assay, heterozygous Mutant 1; conditions: for IC50: ALS of heterozygous Mutant 1, read-out: ID50% (the source's name); for resistance group, Enzyme Assay: Mutant 1, groups Strong, Intermediate, Weak, Zero; for Fold Increase: fold increase in resistance vs wild type, heterozygous Mutant 1, 30 min
Description: as §6, §1, §2, §3, §4, §5

[9] = target: ALS enzyme extracted from Mutant 8 (heterozygous); assay: ALS enzyme assay, heterozygous Mutant 8; conditions: for IC50: ALS of heterozygous Mutant 8, read-out: ID50% (the source's name); for resistance group, Enzyme Assay: Mutant 8, groups Strong, Intermediate, Weak, Zero; for Fold Increase: fold increase in resistance vs wild type, heterozygous Mutant 8, 30 min
Description: as §6, §1, §2, §3, §4, §5

[10] = target: ALS enzyme extracted from Mutant 9 (heterozygous); assay: ALS enzyme assay, heterozygous Mutant 9; conditions: for IC50: ALS of heterozygous Mutant 9, read-out: ID50% (the source's name); for resistance group, Enzyme Assay: Mutant 9, groups Strong, Intermediate, Weak, Zero; for Fold Increase: fold increase in resistance vs wild type, heterozygous Mutant 9, 30 min
Description: as §6, §1, §2, §3, §4, §5

[11] = target: ALS enzyme extracted from Mutant 3 (heterozygous); assay: ALS enzyme assay, heterozygous Mutant 3; conditions: for IC50: ALS of heterozygous Mutant 3, read-out: ID50% (the source's name); for resistance group, Enzyme Assay: Mutant 3, groups Strong, Intermediate, Weak, Zero; for Fold Increase: fold increase in resistance vs wild type, heterozygous Mutant 3, 30 min
Description: as §6, §1, §2, §3, §4, §5

[12] = target: ALS (acetolactate synthase), Wild type; assay: ALS enzyme assay, wild-type control; conditions: read-out: ID50% (the source's name)
Description: as §6, §1, §2, §3, §4, §5

| SMILES | IC50 [1] [µM] | IC50 [2] [µM] | resistance group, Enzyme Assay [2] | Fold Increase [2] | IC50 [3] [µM] | resistance group, Enzyme Assay [3] | Fold Increase [3] | IC50 [4] [µM] | Fold Increase [4] | IC50 [5] [µM] | resistance group, Enzyme Assay [5] | Fold Increase [5] | IC50 [6] [µM] | resistance group, Enzyme Assay [6] | Fold Increase [6] | IC50 [7] [µM] | resistance group, Enzyme Assay [7] | Fold Increase [7] | IC50 [8] [µM] | resistance group, Enzyme Assay [8] | other results |
| --- | --- | --- | --- | --- | --- | --- | --- | --- | --- | --- | --- | --- | --- | --- | --- | --- | --- | --- | --- | --- | --- |
| CC(C)C1(C)N=C(c2ncccc2C(=O)O)NC1=O (stereo not shown) [Imazapyr, imazapyr] | > 1000 | 35 | Strong | 12 | 10 | Intermediate | 3 | 675 | 225 | 5 | Intermediate | 2 | 540 | Strong | 180 | 300 | Strong | 100 | > 1000 | Strong | Fold Increase ([1]; 30 min): >333; Fold Increase [8]: >333; IC50 [9]: > 1000 µM; resistance group, Enzyme Assay [9]: Strong; Fold Increase [9]: >333; IC50 [10]: > 1000 µM; resistance group, Enzyme Assay [10]: Strong; Fold Increase [10]: >333; IC50 [11]: 4 µM; resistance group, Enzyme Assay [11]: Weak; Fold Increase [11]: 1; IC50 ([12]; herbicide concentration giving 50% inhibition of ALS activity): 3 µM |
| COC(=O)c1sccc1S(=O)(=O)NC(=O)Nc1nc(C)nc(OC)n1 [Thiacarburon, thiacarburon] | 0.04 | 0.39 | Intermediate | 9 | 0.025 | Zero | 1 | 0.36 | 8.5 | 0.045 | Weak | 1 | 0.32 | Intermediate | 8 | 0.34 | Intermediate | 8 | 0.055 | Weak | Fold Increase [1]: nil; Fold Increase [8]: 1; IC50 [9]: 0.04 µM; resistance group, Enzyme Assay [9]: Weak; Fold Increase [9]: 1; IC50 [10]: 0.045 µM; resistance group, Enzyme Assay [10]: Weak; Fold Increase [10]: 1; IC50 [11]: 0.085 µM; resistance group, Enzyme Assay [11]: Weak; Fold Increase [11]: 2; IC50 [12]: 0.0425 µM |
